Reference: patent publication US11878965B2, “Inhibitors of peptidylarginine deiminases” (Gilead Sciences, Inc., priority 2020, dated 2024)

Target: human PAD4 (Homo sapiens (Human), UniProt Q9UM07)
Assay: In Vitro PAD4 BAEE Biochemical Assay
Details: geometric mean of multiple experiments
Description: The PCR product was ligated into linearized pET-SUMO vector (Invitrogen, Carlsbad, CA), which is part of the Champion™ pET SUMO Protein Expression System. After sequence verification for the correct orientation, the pET-SUMO-hPAD4 expression plasmid was transformed into BL21(DE3) cells.
E. Coli BL21(DE3) cells were inoculated in LB medium with kanamycin at 37° C. until A600 nm reached about 0.5. Protein expression was induced by addition of 0.5 mM IPTG (final) and continued overnight at 16° C. at 220 rpm.
Cells were harvested by centrifugation at 5000 rpm for 10 minutes at 4° C. The pellet was resuspended in 300 ml lysis buffer (20 mM Tris-HCl, pH 8.0, 1 mM EDTA, 500 mM NaCl, 1 mM (tris(2-carboxyethyl)phosphine) (TCEP), 10% glycerol, and 1% Triton X100 and EDTA free protease inhibitor) and lysed by 3× passage through a microfluidizer (Microfluidics, Newton, MA) at 18,000 psi. The cell lysate was clarified by centrifugation at 30,000 rpm for 60 minutes at 4° C. The supernatant was applied to a 5 ml Ni-HP (GE HealthCare Cat #17524701) column preequilibrated in Ni-A buffer (20 mM Tris-HCl, pH 8.0, 20 mM Imidazole, 1 mM TCEP, 10% glycerol, and 400 mM NaCl). Bound protein was eluted with a 0-100% linear gradient of 100 mL Ni-B buffer (Ni A buffer+0.5 M Imidazole).
The His-Sumo tag was cleaved using sumo protease (Thermo Fisher Cat #: 12588018) while dialyzing in buffer (20 mM Tris-HCl, pH 8.0, 1 mM EDTA, 500 mM NaCl, 1 mM TCEP, 10% glycerol). The protein was then reloaded onto a Ni-HP column for a reverse purification step and recovered in flow through fraction. The protein with His-Sumo tag removed was then polished using a 16/60 Superdex-200 gel filtration column with gel filtration buffer (20 mM Tris pH 8.0, NaCl 400 mM and 1 mM TCEP). The fractions containing the protein were pulled and frozen at −80° C.
In Vitro PAD4 BAEE Biochemical Assay
The enzymatic activity of human PAD4 was monitored in a biochemical assay in the presence or absence of compounds using the small peptidyl arginine mimic BAEE (Nα-Benzoyl-L-arginine ethyl ester hydrochloride) as substrate. PAD4 activity led to deimination of BAEE and release of ammonia. Levels of ammonia were monitored by using an amine coupling reaction and were indicative of PAD4 enzymatic activity.
One hundred nanoliters of test compounds dissolved in DMSO at various concentrations were dispensed into a 384-well black OptiPlate using a Labcyte Echo instrument. Ten microliters of a solution of recombinant PAD4 and calcium chloride diluted in PAD4 assay buffer (50 mM MOPS [3-(N-morpholino) propanesulfonic acid], pH 7.6; 50 mM sodium chloride; 0.05% Tween-20; 2 mM dithiothreitol) was added to the compound-containing plate and was incubated for 30 minutes at 25° C. Ten microliters of a solution of BAEE (Sigma-Aldrich #B4500) diluted in PAD4 assay buffer was then added to start the reaction. Final concentrations were 5 nM PAD4, 2 mM calcium chloride, and 3 mM BAEE. The reaction mixture was incubated at 25° C. for 2 hours and was stopped with the addition of 10 microliters of a solution of 75 mM EDTA (Ethylenediaminetetraacetic acid) in PAD4 assay buffer. Thirty microliters of detection solution (5 mM o-phthalaldehyde, 50 mM MOPS [3-(N-morpholino) propanesulfonic acid], pH 7.6; 50 mM sodium chloride; 0.05% Tween-20; 5 mM dithiothreitol) was then added and the reaction was incubated for 1 hour at 25° C. The level of fluorescent thiol-substituted isoindole resulting from the reaction of ammonia, o-phthalaldehyde, and dithiothreitol was measured on an Envision plate reader (PerkinElmer) with 405 nm excitation and 535 nm emission.

[1] = human PAD4, BAEE substrate, 5 nM PAD4, 2 mM calcium chloride, 3 mM BAEE
[2] = recombinant PAD4 5 nM, 2 mM calcium chloride, 3 mM BAEE substrate

human PAD4, sequence (Q9UM07 2-663): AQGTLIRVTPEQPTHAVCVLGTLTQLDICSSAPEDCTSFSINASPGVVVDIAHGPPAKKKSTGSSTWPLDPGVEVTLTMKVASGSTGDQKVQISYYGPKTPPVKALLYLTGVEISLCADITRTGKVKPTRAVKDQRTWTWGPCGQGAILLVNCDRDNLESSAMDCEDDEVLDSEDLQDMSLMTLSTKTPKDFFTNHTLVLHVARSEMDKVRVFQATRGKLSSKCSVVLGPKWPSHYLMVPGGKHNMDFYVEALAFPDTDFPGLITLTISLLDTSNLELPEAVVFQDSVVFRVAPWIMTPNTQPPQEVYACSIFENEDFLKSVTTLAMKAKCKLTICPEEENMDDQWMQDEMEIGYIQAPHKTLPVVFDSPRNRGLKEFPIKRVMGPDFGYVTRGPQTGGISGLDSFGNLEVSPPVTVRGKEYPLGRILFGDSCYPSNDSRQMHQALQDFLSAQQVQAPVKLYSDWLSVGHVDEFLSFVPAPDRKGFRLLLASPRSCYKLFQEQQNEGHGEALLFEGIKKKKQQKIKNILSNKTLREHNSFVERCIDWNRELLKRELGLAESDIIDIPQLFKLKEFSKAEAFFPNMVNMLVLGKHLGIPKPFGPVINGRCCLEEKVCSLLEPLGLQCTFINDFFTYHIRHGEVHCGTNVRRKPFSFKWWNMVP

Row | Compound | IC50 [1] [nM] | IC50 [2] [nM]
1 | COc1cc(C(=O)N2[C@H]3CC[C@@H]2[C@H](N)C3)cc2nc(-c3cc4ccc([C@@H](C)NC(=O)C(C)(C)C)nc4n3CC3CC3)n(C3CC3)c12 [Example 127, N-((R)-1-(2-(5-((1R,2R,4S)-2-amino-7-azabicyclo[2.2.1]heptane-7-carbonyl)-1-cyclopropyl-7-methoxy-1H-benzo[d]imidazol-2-yl)-1-(cyclopropylmethyl)-1H-pyrrolo[2,3-b]pyridin-6-yl)ethyl)pivalamide] | 63.7 | 
2 | COc1cc(C(=O)N2[C@H]3CC[C@@H]2[C@H](N)C3)cc2nc(-c3cc4ccc(N5[C@@H](C)CCCS5(=O)=O)nc4n3CC3CC3)n(C)c12 [Example 103, ((1R,2R,4S)-2-amino-7-azabicyclo[2.2.1]heptan-7-yl) (2-(1-(cyclopropylmethyl)-6-((S)-3-methyl-1,1-dioxido-1,2-thiazinan-2-yl)-1H-pyrrolo[2,3-b]pyridin-2-yl)-7-methoxy-1-methyl-1H-benzo[d]imidazol-5-yl) methanone] | 22.3 | 
3 | COc1cc(C(=O)N2C[C@H](N)CCN2C)cc2nc(-c3cc4ccc([C@@H](C)NC(=O)[C@@H]5CC5(F)F)nc4n3CC3CC3)n(C)c12 [Example 168, (S)-N-((R)-1-(2-(5-((R)-5-amino-2-methylhexahydropyridazine-1-carbonyl)-7-methoxy-1-methyl-1H-benzo[d]imidazol-2-yl)-1-(cyclopropylmethyl)-1H-pyrrolo[2,3-b]pyridin-6-yl)ethyl)-2,2-difluorocyclopropane-1-carboxamide] | 102 | 
4 | COc1cc(C(=O)N[C@@H]2CNC[C@H]2NC(=O)/C=C/CN(C)C)cc2nc(-c3cc4ccc(N(C(F)F)S(C)(=O)=O)nc4n3CC3CC3)n(C)c12 (stereo in doubt) [Example 71, 2-[1-(cyclopropylmethyl)-6-[difluoromethyl(methylsulfonyl)amino]pyrrolo[2,3-b]pyridin-2-yl]-N-[(3R,4R)-4-[[(E)-4-(dimethylamino)but-2-enoyl]amino]pyrrolidin-3-yl]-7-methoxy-1-methyl-benzimidazole-5-carboxamide] | 490 | 
5 | COc1cc(C(=O)N2[C@H]3CC[C@@H]2[C@H](N)C3)cc2nc(-c3cc4ccc([C@@H](C)NC(=O)c5ccccc5)nc4n3CC3CC3)n(C3CC3)c12 [Example 129, N-((R)-1-(2-(5-((1R,2R,4S)-2-amino-7-azabicyclo[2.2.1]heptane-7-carbonyl)-1-cyclopropyl-7-methoxy-1H-benzo[d]imidazol-2-yl)-1-(cyclopropylmethyl)-1H-pyrrolo[2,3-b]pyridin-6-yl)ethyl)benzamide] | 86 | 
6 | C[C@H]1CCCS(=O)(=O)N1c1ccc2cc(-c3nc4cc(C(=O)N5[C@H]6CC[C@@H]5[C@H](N)C6)ccc4n3C3CC3)n(CC3CC3)c2n1 [Example 98, ((1R,2R,4S)-2-amino-7-azabicyclo[2.2.1]heptan-7-yl) (1-cyclopropyl-2-(1-(cyclopropylmethyl)-6-((S)-3-methyl-1,1-dioxido-1,2-thiazinan-2-yl)-1H-pyrrolo[2,3-b]pyridin-2-yl)-1H-benzo[d]imidazol-5-yl)methanone] | 18.9 | 
7 | COc1cc(C(=O)N2[C@H]3CC[C@@H]2[C@H](N)C3)cc2nc(-c3cc4ccc([C@@H](C)NC(=O)c5cnn(C)c5)cc4n3CC3CC3)n(C)c12 [Example 135, N-((R)-1-(2-(5-((1R,2R,4S)-2-amino-7-azabicyclo[2.2.1]heptane-7-carbonyl)-7-methoxy-1-methyl-1H-benzo[d]imidazol-2-yl)-1-(cyclopropylmethyl)-1H-indol-6-yl)ethyl)-1-methyl-1H-pyrazole-4-carboxamide] | 13 | 
8 | COc1cc(C(=O)N2CCC[C@@H](N)C2)cc2nc(-c3cc4ccc(N(C)S(C)(=O)=O)nc4n3CC3CC3)n(C)c12 [Example 3, (R)-N-(2-(5-(3-aminopiperidine-1-carbonyl)-7-methoxy-1-methyl-1H-benzo[d]imidazol-2-yl)-1-(cyclopropylmethyl)-1H-pyrrolo [2,3-b]pyridin-6-yl)-N-methylmethanesulfonamide] | 122 | 

Continued, values first:

Row | IC50 [1] [nM] | IC50 [2] [nM] | Compound
9 |  | 80.7 | COc1cc(C(=O)N2C[C@H](N)[C@@H]3CC[C@H]2C3)cc2nc(-c3cc4ccc([C@@H](C)NC(=O)c5ccccc5Cl)nc4n3CC3CC3)n(C)c12 [Example 293, N-((R)-1-(2-(5-((1S,4R,5R)-4-amino-2-azabicyclo [3.2.1]octane-2-carbonyl)-7-methoxy-1-methyl-1H-benzo[d]imidazol-2-yl)-1-(cyclopropylmethyl)-1H-pyrrolo[2,3-b]pyridin-6-yl)ethyl)-2-chlorobenzamide]
10 | 386 |  | COc1cc(C(=O)N2C[C@H](N)CC[C@@H]2C)cc2nc(-c3cc4ccc(-c5c(C)ccnc5-c5cnc(C)s5)nc4n3CC3CC3)n(C)c12 [Example 268, ((2S,5R)-5-amino-2-methylpiperidin-1-yl)(2-(1-(cyclopropylmethyl)-6-(4-methyl-2-(2-methylthiazol-5-yl)pyridin-3-yl)-1H-pyrrolo[2,3-b]pyridin-2-yl)-7-methoxy-1-methyl-1H-benzo[d]imidazol-5-yl)methanone]
11 | 2330 |  | COc1cc(C(=O)N2C[C@H](N)CC[C@@H]2C)cc2nc(-c3cc4ccc(-c5c(C)ccc6[nH]ncc56)nc4n3CC3CC3)n(C)c12 [Example 273, ((2S,5R)-5-amino-2-methylpiperidin-1-yl)(2-(1-(cyclopropylmethyl)-6-(5-methyl-1H-indazol-4-yl)-1H-pyrrolo[2,3-b]pyridin-2-yl)-7-methoxy-1-methyl-1H-benzo[d]imidazol-5-yl)methanone]
12 |  | 74.1 | COc1cc(C(=O)N2C[C@H](N)[C@@H]3CC[C@H]2C3)cc2nc(-c3cc4ccc([C@@H](C)NC(=O)c5ccnc(C(F)F)c5)nc4n3CC3CC3)n(C)c12 [Example 296, N-((R)-1-(2-(5-((1S,4R,5R)-4-amino-2-azabicyclo[3.2.1]octane-2-carbonyl)-7-methoxy-1-methyl-1H-benzo[d]imidazol-2-yl)-1-(cyclopropylmethyl)-1H-pyrrolo[2,3-b]pyridin-6-yl)ethyl)-2-(difluoromethyl)isonicotinamide]
13 | 550 |  | COc1cc(C(=O)N2CCC[C@@H](N)C2)cc2nc(-c3cc4ccc(S(=O)(=O)C(C)C)nc4n3CC3CC3)n(C)c12 [Example 254, (R)-(3-aminopiperidin-1-yl)(2-(1-(cyclopropylmethyl)-6-(isopropylsulfonyl)-1H-pyrrolo[2,3-b]pyridin-2-yl)-7-methoxy-1-methyl-1H-benzo[d]imidazol-5-yl)methanone]
14 | 351 |  | COc1cc(C(=O)N2CCC[C@@H](N)C2)cc2nc(-c3cc4ccc(-c5cccnc5-c5csc(N6CCCCC6)n5)nc4n3CC3CC3)n(C)c12 [Example 270, (R)-(3-aminopiperidin-1-yl)(2-(1-(cyclopropylmethyl)-6-(2-(2-(piperidin-1-yl)thiazol-4-yl)pyridin-3-yl)-1H-pyrrolo[2,3-b]pyridin-2-yl)-7-methoxy-1-methyl-1H-benzo[d]imidazol-5-yl)methanone]
15 | 149 |  | COc1cc(C(=O)N2C[C@H](N)CCN2C)cc2nc(-c3cc4ccc([C@@H](C)NC(=O)C56CC(C(F)(F)F)(C5)C6)nc4n3CC3CC3)n(C)c12 [Example 188, N-((R)-1-(2-(5-((R)-5-amino-2-methylhexahydropyridazine-1-carbonyl)-7-methoxy-1-methyl-1H-benzo[d]imidazol-2-yl)-1-(cyclopropylmethyl)-1H-pyrrolo[2,3-b]pyridin-6-yl)ethyl)-3-(trifluoromethyl)bicyclo [1.1.1]pentane-1-carboxamide]
